Measured values as given in article PMC3914206.

Target: T1, panel of 442 kinases (Homo sapiens, UniProt O14976)
T1 construct: purchased KINOMEscan
T1 sequence (O14976 1-1311): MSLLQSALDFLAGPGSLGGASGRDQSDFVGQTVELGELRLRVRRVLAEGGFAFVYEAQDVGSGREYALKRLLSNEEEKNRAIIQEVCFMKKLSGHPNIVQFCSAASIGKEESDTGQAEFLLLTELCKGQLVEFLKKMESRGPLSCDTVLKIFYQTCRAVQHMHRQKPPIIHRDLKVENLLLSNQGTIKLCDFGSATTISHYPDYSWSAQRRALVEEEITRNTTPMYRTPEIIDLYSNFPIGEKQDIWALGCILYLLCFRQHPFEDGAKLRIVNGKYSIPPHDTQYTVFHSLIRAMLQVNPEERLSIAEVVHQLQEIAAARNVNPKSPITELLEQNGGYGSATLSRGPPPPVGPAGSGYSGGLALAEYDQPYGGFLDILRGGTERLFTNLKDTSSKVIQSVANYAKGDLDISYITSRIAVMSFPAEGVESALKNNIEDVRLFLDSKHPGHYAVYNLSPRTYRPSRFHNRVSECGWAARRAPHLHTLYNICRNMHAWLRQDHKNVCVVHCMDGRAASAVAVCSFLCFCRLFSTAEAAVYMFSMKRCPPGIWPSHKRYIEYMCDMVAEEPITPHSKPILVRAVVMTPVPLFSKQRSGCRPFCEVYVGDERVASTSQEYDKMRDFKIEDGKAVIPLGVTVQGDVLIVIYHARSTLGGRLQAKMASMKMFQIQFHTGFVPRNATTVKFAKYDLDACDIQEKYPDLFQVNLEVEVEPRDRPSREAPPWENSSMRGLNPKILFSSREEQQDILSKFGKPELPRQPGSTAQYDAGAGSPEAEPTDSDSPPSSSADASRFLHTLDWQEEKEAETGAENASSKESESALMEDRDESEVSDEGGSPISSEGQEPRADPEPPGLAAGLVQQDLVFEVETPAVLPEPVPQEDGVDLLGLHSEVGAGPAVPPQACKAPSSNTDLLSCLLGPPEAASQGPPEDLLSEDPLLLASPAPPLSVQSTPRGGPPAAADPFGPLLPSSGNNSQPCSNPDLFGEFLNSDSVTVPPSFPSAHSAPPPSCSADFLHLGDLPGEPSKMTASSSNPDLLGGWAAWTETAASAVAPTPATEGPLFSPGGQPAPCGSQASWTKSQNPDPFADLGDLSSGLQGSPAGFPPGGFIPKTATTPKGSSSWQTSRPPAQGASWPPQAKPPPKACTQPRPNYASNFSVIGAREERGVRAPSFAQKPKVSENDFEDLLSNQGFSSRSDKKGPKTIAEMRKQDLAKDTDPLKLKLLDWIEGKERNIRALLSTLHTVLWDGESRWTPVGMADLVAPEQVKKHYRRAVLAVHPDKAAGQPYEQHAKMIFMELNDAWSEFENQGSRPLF
Format: binding
Conditions: Compound Concentration 10 µM
Text: We assessed the selectivity of members of this scaffold using the KINOMEscan methodology across a near comprehensive panel of 442 kinases [[18,27]].

Row | Compound | KINOMEscan: GAK
1 | COc1cc(C(=O)N2CCC(N3CCN(C)CC3)CC2)ccc1Nc1ncc2c(n1)N(C)c1ccccc1C(=O)N2C [15 (LRRK2-IN-1)] | 16
2 | COc1cc(C(=O)N2CCC(N3CCN(C)CC3)CC2)ccc1Nc1ncc2c(n1)N1CCc3cccc(c31)C(=O)N2C [Compound 24] | 19
3 | COc1cc(C(=O)N2CCC(N3CCN(C)CC3)CC2)ccc1Nc1ncc2c(n1)N(C1CCCC1)c1ccccc1C(=O)N2C [Compound 25, 11-cyclopentyl-2-((2-methoxy-4-(4-(4-methylpiperazin-1-yl)piperidine-1-carbonyl)phenyl)amino)-5-methyl-5H-benzo[e]pyrimido[5,4-b][1,4]diazepin-6(11H)-one] | 82
4 | CCOc1cc(C(=O)N2CCC(N3CCN(C)CC3)CC2)ccc1Nc1ncc2c(n1)N(C1CCCC1)c1ccccc1C(=O)N2C [Compound 26] | 100
